#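 How tested: cells in 96-well plates exposed to compound for 48 hours at five concentrations. GI50 marks 50% less growth.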 Calls of active or inactive are those of the source. Cut-off read from the data, not from the text of the source: active = GI50 up to about 1.1 µM and inactive = higher.
# Tests used:
# Test in all cases: NCI tumour cell line growth inhibition, 48 h
# Hs-578T = tested on: Hs-578T
# MDA-N = tested on: MDA-N
# TK-10 = tested on: TK-10
# SF-295 = tested on: SF-295
# A549 = tested on: A549
# SNB-75 = tested on: SNB-75
# OVCAR-8 = tested on: OVCAR-8
# IGROV-1 = tested on: IGROV-1
# KM12 = tested on: KM12
# HOP-62 = tested on: HOP-62
# OVCAR-3 = tested on: OVCAR-3
# UACC-257 = tested on: UACC-257
# SK-MEL-2 = tested on: SK-MEL-2
# OVCAR-4 = tested on: OVCAR-4
# OVCAR-5 = tested on: OVCAR-5
# MDA-MB-435 = tested on: MDA-MB-435
# HCC 2998 = tested on: HCC 2998
# M14 = tested on: M14
# MOLT-4 = tested on: MOLT-4
# RPMI-8226 = tested on: RPMI-8226
# UO-31 = tested on: UO-31
# EKVX = tested on: EKVX
# K562 = tested on: K562
# HL-60 = tested on: HL-60
# MDA-MB-231 = tested on: MDA-MB-231
# SN12C = tested on: SN12C
# U-251 = tested on: U-251
# SW-620 = tested on: SW-620
# SF-268 = tested on: SF-268
# A498 = tested on: A498
# NCI-H226 = tested on: NCI-H226
# CAKI-1 = tested on: CAKI-1
# RXF 393 = tested on: RXF 393
# HT-29 = tested on: HT-29
# UACC-62 = tested on: UACC-62
# T47D = tested on: T47D
# HCT-15 = tested on: HCT-15
# ACHN = tested on: ACHN
# SF-539 = tested on: SF-539
# LOX IMVI = tested on: LOX IMVI
# COLO 205 = tested on: COLO 205
# NCI-H460 = tested on: NCI-H460
# HOP-92 = tested on: HOP-92
# SK-MEL-28 = tested on: SK-MEL-28
# NCI-H522 = tested on: NCI-H522
# SK-OV-3 = tested on: SK-OV-3
# NCI-H23 = tested on: NCI-H23
# BT-549 = tested on: BT-549
# SNB-19 = tested on: SNB-19
# DU-145 = tested on: DU-145
# PC-3 = tested on: PC-3
# CCRF-CEM = tested on: CCRF-CEM
# HCT-116 = tested on: HCT-116
# MCF7 = tested on: MCF7
# NCI/ADR-RES = tested on: NCI/ADR-RES
# SR = tested on: SR
# SK-MEL-5 = tested on: SK-MEL-5
# 786-0 = tested on: 786-0
smiles,measurement,setting,value
COC(OC)C1OC(CO)C(n2cc(F)c(=O)[nH]c2=O)C1O (centres undefined),GI50,Hs-578T,> 100 µM (inactive)
same,GI50,MDA-N,> 100 µM (inactive)
same,GI50,TK-10,> 100 µM (inactive)
same,GI50,SF-295,> 100 µM (inactive)
same,GI50,A549,> 100 µM (inactive)
same,GI50,SNB-75,> 100 µM (inactive)
same,GI50,OVCAR-8,> 100 µM (inactive)
same,GI50,IGROV-1,> 100 µM (inactive)
same,GI50,KM12,> 100 µM (inactive)
same,GI50,HOP-62,> 100 µM (inactive)
same,GI50,OVCAR-3,> 100 µM (inactive)
same,GI50,UACC-257,> 100 µM (inactive)
same,GI50,SK-MEL-2,> 100 µM (inactive)
same,GI50,OVCAR-4,> 100 µM (inactive)
same,GI50,OVCAR-5,> 100 µM (inactive)
same,GI50,MDA-MB-435,> 100 µM (inactive)
same,GI50,HCC 2998,> 100 µM (inactive)
same,GI50,M14,> 100 µM (inactive)
same,GI50,MOLT-4,> 100 µM (inactive)
same,GI50,RPMI-8226,> 100 µM (inactive)
same,GI50,UO-31,> 100 µM (inactive)
same,GI50,EKVX,> 100 µM (inactive)
same,GI50,K562,> 100 µM (inactive)
same,GI50,HL-60,> 100 µM (inactive)
same,GI50,MDA-MB-231,> 100 µM (inactive)
same,GI50,SN12C,> 100 µM (inactive)
same,GI50,U-251,> 100 µM (inactive)
same,GI50,SW-620,> 100 µM (inactive)
same,GI50,SF-268,> 100 µM (inactive)
same,GI50,A498,> 100 µM (inactive)
same,GI50,NCI-H226,> 100 µM (inactive)
same,GI50,CAKI-1,> 100 µM (inactive)
same,GI50,RXF 393,> 100 µM (inactive)
same,GI50,HT-29,> 100 µM (inactive)
same,GI50,UACC-62,> 100 µM (inactive)
same,GI50,T47D,25.4 µM (inactive)
same,GI50,HCT-15,> 100 µM
same,GI50,ACHN,> 100 µM (inactive)
same,GI50,SF-539,> 100 µM (inactive)
same,GI50,LOX IMVI,> 100 µM (inactive)
same,GI50,COLO 205,10.7 µM (inactive)
same,GI50,NCI-H460,> 100 µM (inactive)
same,GI50,HOP-92,> 100 µM (inactive)
same,GI50,SK-MEL-28,> 100 µM (inactive)
same,GI50,NCI-H522,> 100 µM (inactive)
same,GI50,SK-OV-3,> 100 µM (inactive)
same,GI50,NCI-H23,> 100 µM (inactive)
same,GI50,BT-549,> 100 µM (inactive)
same,GI50,SNB-19,> 100 µM (inactive)
same,GI50,DU-145,21.4 µM (inactive)
same,GI50,PC-3,> 100 µM (inactive)
same,GI50,CCRF-CEM,> 100 µM (inactive)
same,GI50,HCT-116,> 100 µM (inactive)
same,GI50,MCF7,> 100 µM (inactive)
same,GI50,NCI/ADR-RES,> 100 µM (inactive)
CCC(=O)O[C@H]1CC[C@H]2[C@@H]3CCC4=C/C(=N/OC(=O)c5cccc6c(=O)c7ccccc7[nH]c56)CC[C@]4(C)[C@H]3CC[C@]12C,GI50,Hs-578T,22.4 µM (inactive)
same,GI50,MDA-N,35 µM (inactive)
same,GI50,TK-10,54.6 µM (inactive)
same,GI50,SF-295,29.9 µM (inactive)
same,GI50,A549,43.5 µM (inactive)
same,GI50,SNB-75,54.6 µM (inactive)
same,GI50,OVCAR-8,29.9 µM (inactive)
same,GI50,IGROV-1,21.8 µM (inactive)
same,GI50,KM12,22.9 µM (inactive)
same,GI50,HOP-62,32.1 µM (inactive)
same,GI50,OVCAR-3,18.3 µM (inactive)
same,GI50,UACC-257,38.1 µM (inactive)
same,GI50,SK-MEL-2,31.6 µM (inactive)
same,GI50,OVCAR-4,38.2 µM (inactive)
same,GI50,OVCAR-5,33.7 µM (inactive)
same,GI50,MDA-MB-435,27.6 µM (inactive)
same,GI50,HCC 2998,21.3 µM (inactive)
same,GI50,M14,24.7 µM (inactive)
same,GI50,MOLT-4,17.9 µM (inactive)
same,GI50,RPMI-8226,19.9 µM (inactive)
same,GI50,UO-31,26.4 µM (inactive)
same,GI50,EKVX,8.53 µM (inactive)
same,GI50,K562,18 µM (inactive)
same,GI50,MDA-MB-231,88.3 µM (inactive)
same,GI50,SN12C,42.9 µM (inactive)
same,GI50,U-251,25.6 µM (inactive)
same,GI50,SW-620,32 µM (inactive)
same,GI50,SF-268,38.5 µM (inactive)
same,GI50,A498,27.1 µM (inactive)
same,GI50,NCI-H226,33.8 µM (inactive)
same,GI50,RXF 393,22.5 µM (inactive)
same,GI50,HT-29,27.3 µM (inactive)
same,GI50,UACC-62,28.8 µM (inactive)
same,GI50,T47D,29.9 µM (inactive)
same,GI50,SR,29.8 µM (inactive)
same,GI50,HCT-15,21.3 µM
same,GI50,ACHN,47.9 µM (inactive)
same,GI50,SF-539,20.6 µM (inactive)
same,GI50,LOX IMVI,23.3 µM (inactive)
same,GI50,COLO 205,32.3 µM (inactive)
same,GI50,NCI-H460,22.2 µM (inactive)
same,GI50,HOP-92,30.8 µM (inactive)
same,GI50,SK-MEL-28,28.7 µM (inactive)
same,GI50,NCI-H522,18.6 µM (inactive)
same,GI50,SK-OV-3,> 100 µM (inactive)
same,GI50,NCI-H23,51.3 µM (inactive)
same,GI50,BT-549,25.3 µM (inactive)
same,GI50,SK-MEL-5,22.8 µM (inactive)
same,GI50,SNB-19,51.4 µM (inactive)
same,GI50,786-0,18.4 µM (inactive)
same,GI50,PC-3,26.9 µM (inactive)
same,GI50,CCRF-CEM,14 µM (inactive)
same,GI50,MCF7,20.9 µM (inactive)
same,GI50,NCI/ADR-RES,31.7 µM (inactive)

# From ChEMBL document CHEMBL1201862, “PubChem BioAssay data set” (2004)
